Laboratory results published in patent publication US9878007B2, “Syndecan peptides and polypeptides as inhibitors of vascular endothelial growth factor receptor-2 (VEGFR2) and very late antigen-4 (VLA-4)” (Wisconsin Alumni Research Foundation, priority 2015, dated 2018).
Blank lines part the entries; values can stand above or below the substance they belong to. No end group written: not given here.

Assays:
VEGFR2 = target: T1, VEGFR2 (Homo sapiens, UniProt P35968); experiment: GST pull down assay: capture of VEGFR2 by GST-S1ED; type: binding; conditions: HPSE^low cell lysates; peptide 30 M [sic]
T1 construct: endogenous in cells; host or cells: CAG human myeloma cells (HPSE^low = empty vector; HPSE^high = human HPSE cDNA)
Procedure: FIGS. 6A-G. Peptides derived from the active site in Sdc1 activate or inhibit adhesion and invasion. (FIG. 6A) Transwell migration assays towards FN (for 16 hrs) were performed for HPSE low or high cells in the presence of 0, 0.3, 3, and 30 μM of S1ED^210-240. Cells migrating to the bottom side of the filter were counted from five random images for each treatment. (FIG. 6B) The sequence of S1ED210-240 is shown (SEQ ID NO: 3), as well as […] truncation mutants of the peptide (SEQ ID NOs: 5, 2, 4 and 7). Amino acids shown in red appear necessary for the spreading and invasive activity. (FIG. 6C) Images of HPSE^low and HPSE^high cells plated on FN for 2 hr. (FIG. 6D) HPSE^low cells were treated with 0, 0.3, 3, 10 and 30 μM of S1ED^210-236, S1ED^210-233, or S1ED^214-240, plated on FN for 2 hr, fixed and stained with fluorescent phalloidin. Cells from five random images were quantified for cell attachment and cell spreading. (FIG. 6E) HPSE^high cells were treated with 0, 3, 10, and 30 μM of S1ED^210-236, S1ED^210-233, and S1ED^214-240, plated on FN for 2 hr, then fixed, imaged and quantified as in FIG. 6D. (FIG. 6F) Transwell migration assays towards FN (for 16 hr) were performed for HPSE^low or HPSE^high cells in the presence of 30 μM of S1ED^210-236, S1ED^210-233, S1ED^214-240 and Vandetanib. (FIG. 6G) HPSE^low cell lysates were incubated overnight with glutathione beads coated with GST or GST-S1ED in the absence or presence of 30 μM of S1ED^210-236, S1ED^210-233, and S1ED^214-240. Capture of VLA-4 or VEGFR2 was detected by immunoblotting. Sequences in FIG. 6B are 210-240 (SEQ ID NO: 3), 210-236 (SEQ ID NO: 2), 210-233 (SEQ ID NO: 4), 214-240 (SEQ ID NO: 5) and 214-236 (SEQ ID NO: 7).
CAG cells were washed with CMF-PBS and then lysed for 20 min on ice in lysis buffer. Cell debris was removed by centrifugation at 13000 rpm for 20 min at 4° C. Whole cell lysates were then incubated at 4° C. overnight with either 3 μM GST or 3 μM GST-S1ED in the absence or presence of 1 μM, 3 μM, and 10 μM S1ED^210-240 peptide. GST or GST-S1ED was captured by addition of glutathione Sepharose and the beads were washed with ice-cold lysis buffer and CMF-PBS, prior to addition of SDS-PAGE sample buffer and analyszed by electrophoresis and western blotting as described previously.

HMEC-1 cells = experiment: In vitro tube formation assay of HMEC-1 cells on Matrigel; type: cell-based; conditions: 24 hrs, 10 μM peptides
Procedure: FIGS. 8A-H. HPSE mediated the Sdc1-coupled VEGFR2 complex in endothelial cells induces angiogenesis. (FIG. 8A) Lysates from HPSE^low, HPSE^high and HMEC-1 cells are probed by immunoblotting for expression of HPSE. (FIG. 8B) HMEC-1 cells were seeded at equal density and grown in serum-free media for 24 hr in the absence or presence of 125 μg/ml of the HPSE inhibitor SST0001. After 24 hr, conditioned media were harvested, and the level of shed Sdc1 in the conditioned medium from each condition was determined by immunoblotting. (FIG. 8C) HMEC-1 cell lysate was incubated overnight with glutathione beads coated with GST or GST-S1ED. Capture of VLA-4 or VEGFR2 was detected by immunoblotting. (FIG. 8D) HMEC-1 cells were plated on IIICS for 3 hr and double stained for VLA-4 and Sdc1, VEGFR2 and Sdc1, or VLA-4 and VEGFR2. (FIG. 8E) HMEC-1 cells were treated with DMSO, VLA-4 blocking antibody P1H4, β1-integrin blocking antibody mAb13, 10 μg/ml MMP9 blocking antibody, 125 μg/ml HPSE inhibitor SST0001, Vandetanib, VEGFR2 blocking antibody, 30 μM S1ED^210-233 or 30 μM S1ED^214-240 and then plated on IIICS. Images were taken from random field with 200× magnification for counting attached and spread cells. (FIG. 8F) HMEC-1 cells were plated on IIICS in the presence of 10 μM of S1ED^210-236, S1ED^210-233, S1ED^215-240, and S1ED^214-240. Lysates were probed on immunoblots with antibodies against pY^1175 VEGFR2 and VEGFR2. (FIG. 8G) Transwell migration assays towards IIICS (for 16 hr) were performed for HMEC-1 cells in the presence of P1H4, SST0001, Anti-MMP9, Vandetanib, S1ED^210-236, S1ED^210-233, and S1ED^214-240. Images were taken from random field with 200× magnification for counting migrated cells. (FIG. 8H) A 96-well plate coated with 50 μl Matrigel containing 100 μg/ml IIICS per well was solidified at 37° C. for 2 hrs. HMEC-1 cells (2.5×10^4 cells/well) were seeded into the plate and cultured in media containing VEGF, SST0001, 10 μM of S1ED^210-236, S1ED^210-233, S1ED^215-240, and S1ED^214-240 for 24 hrs. Enclosed capillary networks of tubes were taken from random field with 200× magnification.

CAG myeloma cells = experiment: Cell spreading / attachment assay of CAG myeloma cells on FN or VCAM-1; type: cell-based, human; conditions: on FN, 2 hr; for HPSE^high cell adhesion / HPSE^high cell spreading: 0, 3, 10 and 30 μM peptide; for HPSE^low cell adhesion: high concentrations (30 μM)

T1 sequence (P35968 20-1356): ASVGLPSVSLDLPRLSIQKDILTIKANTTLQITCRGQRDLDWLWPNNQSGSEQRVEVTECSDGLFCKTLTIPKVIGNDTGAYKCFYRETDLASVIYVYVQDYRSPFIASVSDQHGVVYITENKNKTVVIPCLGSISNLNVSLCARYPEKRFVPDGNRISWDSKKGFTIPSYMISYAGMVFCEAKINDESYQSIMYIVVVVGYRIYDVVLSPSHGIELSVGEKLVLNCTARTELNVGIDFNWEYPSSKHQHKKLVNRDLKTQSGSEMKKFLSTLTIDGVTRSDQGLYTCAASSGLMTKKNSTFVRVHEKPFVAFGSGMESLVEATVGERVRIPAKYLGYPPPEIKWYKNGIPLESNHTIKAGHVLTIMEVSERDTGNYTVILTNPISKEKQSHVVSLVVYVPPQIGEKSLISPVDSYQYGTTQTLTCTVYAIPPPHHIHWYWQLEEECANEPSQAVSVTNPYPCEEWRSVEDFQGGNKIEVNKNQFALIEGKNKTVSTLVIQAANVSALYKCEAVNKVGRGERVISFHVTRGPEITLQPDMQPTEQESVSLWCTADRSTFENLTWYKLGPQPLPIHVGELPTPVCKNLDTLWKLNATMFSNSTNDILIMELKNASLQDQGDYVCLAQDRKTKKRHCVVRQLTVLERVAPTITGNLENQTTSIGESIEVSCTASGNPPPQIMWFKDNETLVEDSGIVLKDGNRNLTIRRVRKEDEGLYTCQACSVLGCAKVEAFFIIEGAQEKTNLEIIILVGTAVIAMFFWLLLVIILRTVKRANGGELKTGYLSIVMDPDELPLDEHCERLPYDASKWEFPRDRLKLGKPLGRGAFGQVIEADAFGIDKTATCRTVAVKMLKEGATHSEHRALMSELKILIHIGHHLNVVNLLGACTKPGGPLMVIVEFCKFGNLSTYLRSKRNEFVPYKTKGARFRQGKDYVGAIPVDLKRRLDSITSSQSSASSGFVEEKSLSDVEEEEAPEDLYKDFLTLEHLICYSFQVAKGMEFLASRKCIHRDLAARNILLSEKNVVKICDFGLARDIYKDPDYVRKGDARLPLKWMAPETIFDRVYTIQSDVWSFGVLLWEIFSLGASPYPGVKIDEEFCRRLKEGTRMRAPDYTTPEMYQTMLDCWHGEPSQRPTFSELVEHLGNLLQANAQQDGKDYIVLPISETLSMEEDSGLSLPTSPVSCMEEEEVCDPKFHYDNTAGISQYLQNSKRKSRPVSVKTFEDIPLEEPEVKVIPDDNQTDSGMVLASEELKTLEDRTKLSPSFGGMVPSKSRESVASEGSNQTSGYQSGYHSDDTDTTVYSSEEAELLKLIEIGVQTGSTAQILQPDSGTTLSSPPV

Substance: DFTFETSGENTAVVAVEPDRRNQSPVD [S1ED^210-236]
- competition for capture of VEGFR2 by GST-S1ED (VEGFR2): effectively blocks capture of both receptors
- tube formation by HMEC-1 cells (HMEC-1 cells): blocks tube formation
- HPSE^low cell spreading (CAG myeloma cells; 0, 0.3, 3, 10 and 30 μM peptide): induces HPSE^low cell spreading equal to that observed with S1ED^210-240
- HPSE^high cell adhesion (CAG myeloma cells): induce cell detachment
- HPSE^high cell spreading (CAG myeloma cells): block cell spreading when added at increasing concentrations
- HPSE^low cell adhesion (CAG myeloma cells): block cell adhesion

- competition for capture of VEGFR2 by GST-S1ED (VEGFR2): competes for capture of VEGFR2
Substance: S1ED^210-233: syndecan-1 ectodomain peptide, residues 210-233 (SEQ ID NO: 4) (DFTFETSGENTAVVAVEPDRRNQS)
- tube formation by HMEC-1 cells (HMEC-1 cells): blocks tube formation
- HPSE^high cell adhesion (CAG myeloma cells): induce cell detachment
- HPSE^high cell spreading (CAG myeloma cells): block cell spreading when added at increasing concentrations
- HPSE^low cell adhesion (CAG myeloma cells): block cell adhesion
